The source of these data is patent US20170172959A1, “D-SERINE FOR THE TREATMENT OF VISUAL SYSTEM DISORDERS” (Allergan, Inc., priority 2011, published 2017).

Structures are written as SMILES. “Also recorded” adds a separate entry of the source.

The subject of assay [1] is primary visual cortex of adult rats. Kind of assay: LTP in visual cortex slice (fEPSP amplitude after theta burst stimulation). The assay is classed as cell-based. The settings on record: adult Sprague Dawley rat visual cortex slices; compound infused 15 minutes before LTP induction; LTP values at 30 minutes after induction; FIG. 1. As to the method:
LTP in Visual Cortex Slice: Following decapitation of the rat, the brain was rapidly removed and immersed in ice-cold artificial cerebrospinal fluid (ACSF) containing 124 mM NaCl, 3 mM KCl, 1.25 mM KH2PO4, 3.4 mM CaCl2, 2.5 mM MgSO4, 26 mM NaHCO3, and 10 mM D-glucose. A block of visual cortex was created by removing the frontal 2/3 portion of the brain and the cerebellum. Coronal visual cortex slices of 375 μm were prepared from adult Sprague Dawley (SD) rats using a vibratome (VT 1000 S, Leica). The slices were maintained in an interface recording chamber perfused with preheated ACSF. Slices were continuously perfused with this solution at a rate of 1.00-1.50 ml/min while the surface of the slices was exposed to warm, humidified 95% O2/5% CO2 and maintained at 31±1° C. Visual cortex slices were allowed to recover for 1 hr before recording began. […] This was repeated 2 additional times with a 1 minute intertrain interval, and the level of LTP was recorded for at least 30 min. Changes in amplitude of the synaptic response were used to measure the extent of LTP because it was determined to be the more consistent parameter than the slope of the response. […] Statistical comparisons were done with LTP values recorded at 30 minutes after induction.

For assay [2], the system named is slices of kitten visual cortex. The settings on record: Neuroscience Letters 303 (2001) 95-98; cited from earlier work.
The subject of assay [3] is blue-light treated Long-Evans rats. Kind of assay: Contrast sensitivity by sweep VEP in rats with retinal damage induced by blue-light exposure. It is filed as in vivo, rat. The settings on record: 100 or 600 mg/kg injected, saline control, cross-over; measured 30 minutes after treatment; spatial frequency 0.575 cpd; sixteen (600 mg/kg) and fifty weeks (100 mg/kg) after blue-light treatment; FIG. 3. As for the experimental part:
Two doses of D-serine were tested and vehicle (saline) was used as a control. Half of the rats were injected with either 100 or 600 mg/kg D-serine and the other half with saline in the first test; cross-over exposure took place one week later; the spatial frequencies were fixed at 0.575 cycles per degree (cpd). In FIG. 3, the mean values of contrast sensitivity are shown for rats treated with D-serine or saline, with a baseline taken prior to treatment (“pre”) and the contrast sensitivity measured 30 minutes after treatment (“post”).
Sweep visually evoked potential (sweep VEP, sVEP), which was first introduced by Regan in 1973, has become an important technique to measure visual function (VF). It is an objective method that can be used to assess contrast sensitivity (CS) in infants, young children and people with special needs. It was adapted to measure CS in animals.
VEP recording: The recording electrodes were permanently implanted into the right visual cortex of Long Evans rats at lambda and 4.5 mm lateral to the midline, to a depth of 800 microns (layer III/IV). […]
Visual stimuli: Stimuli were presented on a CRT computer monitor and consist of full-field sine-wave gratings at fixed special frequency (0.5, 0.575 or 0.65 cpd in FIG. 1 and 0.575 cpd in FIG. 2), reversing at 6.25 Hz. […] Contrast sensitivity (CS) is calculated as 1/CT.

For the compound `N[C@H](CO)C(=O)O` [D-serine], the “long-term potentiation (LTP) in the primary visual cortex” value in assay [1] is “dose-dependently facilitates long-term potentiation (LTP); also recorded: significantly enhanced the LTP”. Also, in assay [2], the “LTP enhancement by D-serine alone” value is listed as “did not enhance LTP” and the “effect on LTP suppression by the co-agonist site antagonist 7-chlorokynurenic acid” value was “only produced a reversal of the suppressant effects”. The contrast sensitivity entry in assay [3] is “improved the contrast sensitivity; also recorded: dose-dependent improvement in contrast sensitivity; also recorded: enhances contrast sensitivity and visual function”.
